In paper PMC10118286 (Journal of medicinal chemistry, 2021):

Experiments:
MDA-MB-231 cells [1] = conditions: read-out: Anti-proliferative active (IC50, μM) MDA-MB-231; cell viability assay for 24 h
MDA-MB-468 cells [2] = conditions: read-out: Anti-proliferative active (IC50, μM) MDA-MB-468; cell viability assay for 24 h
BRD4 [3] = biological target: T1, BRD4 (Homo sapiens, UniProt O60885); assay: BRD4 inhibition assay; format: binding
CK2 [4] = biological target: T2, CK2 (Homo sapiens, UniProt P68400); conditions: 10 μM
T2 sequence (P68400 whole entry): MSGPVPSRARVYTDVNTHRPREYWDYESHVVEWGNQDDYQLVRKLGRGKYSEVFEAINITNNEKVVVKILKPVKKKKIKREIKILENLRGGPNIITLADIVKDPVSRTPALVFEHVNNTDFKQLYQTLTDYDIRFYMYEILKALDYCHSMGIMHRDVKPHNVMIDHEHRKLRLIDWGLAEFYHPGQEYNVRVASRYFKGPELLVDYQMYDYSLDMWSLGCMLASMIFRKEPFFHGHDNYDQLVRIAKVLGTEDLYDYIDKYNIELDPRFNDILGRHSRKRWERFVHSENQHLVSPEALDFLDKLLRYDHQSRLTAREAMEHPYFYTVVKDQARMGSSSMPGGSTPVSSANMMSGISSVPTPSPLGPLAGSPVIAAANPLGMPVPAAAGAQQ

CK2 [5] = biological target: T2, CK2; assay: biochemical; conditions: read-out: Kinase inhibitory activity (1 μM, %) CK2
[6] = Pharmacokinetic study in SD rats; format: in vivo, Sprague–Dawley (SD) rats
MDA-MB-231 cells [7] = assay: Autophagy assay; format: cell-based; conditions: 5 μM
CK2α = CK2α (Homo sapiens, UniProt P68400); assay: CETSA in MDA-MB-231 cells, CK2α; format: cell-based; conditions: 5 μM, 6 h
Sequence of CK2α (P68400 whole entry): as above

MDA-MB-468 cells [8] = assay: Autophagy assay; format: cell-based; conditions: 5 μM
MDA-MB-231 cells [9] = assay: Colony formation assay, MDA-MB-231; format: cell-based; conditions: 0, 2.5, 5, and 10 μM for 7 days
MCF-10A cells = assay: Cell viability; format: cell-based
BRD4 [10] = biological target: T1, BRD4; assay: CETSA in MDA-MB-231 cells, BRD4; format: cell-based; conditions: 5 μM, 6 h
MDA-MB-468 cells [11] = assay: Colony formation assay, MDA-MB-468; format: cell-based; conditions: 0, 2.5, 5, and 10 μM for 7 days
MDA-MB-231R cells = assay: Antiproliferative activity toward compound 1-resistant MDA-MB-231R cells; conditions: p < 0.01
MDA-MB-231 cells [12] = assay: Annexin-V/PI flow cytometry apoptosis, MDA-MB-231; format: cell-based; conditions: 24 h
p-BRD4^S492 [13] = assay: Western blot of p-BRD4 S492, MDA-MB-231 cells; format: cell-based; conditions: 0, 2.5, 5, and 10 μM for 24 h
p-BRD4^S492 [14] = assay: Western blot of p-BRD4 S492, MDA-MB-468 cells; format: cell-based; conditions: 0, 2.5, 5, and 10 μM for 24 h
MDA-MB-468 cells [15] = assay: Annexin-V/PI flow cytometry apoptosis, MDA-MB-468; format: cell-based; conditions: 24 h
CK1 = conditions: read-out: CK1 inhibitory profile (IC50); triplicate, mean ± SD
MDA-MB-231 xenograft = MDA-MB-231 xenograft tumor model; format: in vivo, nude mice (BALB/c)
[16] = 25 and 50 mg/kg, intragastric, 19 days
[17] = intragastric, once a day for 19 days

Compound: 2-(4-(5,7-Dimethoxy-4-oxo-1,4-dihydroquinazolin-2-yl)-2,6-dimethylphenoxy)-N-morpholinoacetamide [Compound 42b]
- IC50 (MDA-MB-231 cells [1]): 20.6 ± 0.62 µM
- IC50 (MDA-MB-468 cells [2]): 18.5 ± 1.23 µM

Compound: 2-(4-(5,7-Dimethoxy-4-oxo-1,4-dihydroquinazolin-2-yl)-phenoxy)-N-(4-methylpiperazin-1-yl)acetamide [Compound 42g]
- IC50 (MDA-MB-231 cells [1]): 12.8 ± 1.72 µM
- IC50 (MDA-MB-468 cells [2]): 13.7 ± 0.23 µM

Compound: 2-(4-(5,7-Dimethoxy-4-oxo-1,4-dihydroquinazolin-2-yl)-phenoxy)-N-morpholinoacetamide [Compound 42a]
- IC50 (MDA-MB-231 cells [1]): 14.7 ± 1.55 µM
- IC50 (MDA-MB-468 cells [2]): 12.5 ± 0.87 µM

Compound: 6-Methoxy-2-(2-methoxyphenyl)-4H-chromen-4-one [Compound 33c]
- IC50 (MDA-MB-231 cells [1]): > 50 µM
- IC50 (MDA-MB-468 cells [2]): > 50 µM

Compound: Cc1sc2c(c1C)C(c1ccc(Cl)cc1)=N[C@@H](CC(=O)OC(C)(C)C)c1nnc(C)n1-2 [Compound 1, JQ1, reference compound]
- inhibition at 1 µM (BRD4 [3]; read-out: Kinase inhibitory activity (1 μM, %) BRD4): 97 ± 1.32%

Compound: COc1cc(OC)c2c(=O)[nH]c(-c3ccc(OCC(=O)O)cc3)nc2c1 [Compound 26, 2-(4-(5,7-Dimethoxy-4-oxo-1,4-dihydroquinazolin-2-yl)-phenoxy)acetic Acid]
- inhibitory ratio on BRD4 (BRD4 [3]; 10 μM): 63%
- inhibitory ratio on CK2 (CK2 [4]): 45%

Compound: COc1cc(OC)c2c(=O)[nH]c(-c3cc(C)c(OCC(=O)Nc4nc5ccccc5[nH]4)c(C)c3)nc2c1 [Compound 42j, N-(1H-Benzo[d]imidazol-2-yl)-2-(4-(5,7-dimethoxy-4-oxo-1,4-dihydroquinazolin-2-yl)-2,6-dimethylphenoxy)acetamide]
- inhibition at 1 µM (CK2 [5]): 25.6 ± 6.57%

Compound: COc1cc(OC)c2c(=O)[nH]c(-c3ccc(OCC(=O)Nc4ccc(N5CCN(C)CC5)c(Cl)c4)cc3)nc2c1 [Compound 44e, N-(3-Chloro-4-(4-methylpiperazin-1-yl)phenyl)-2-(4-(5,7-dimethoxy-4-oxo-1,4-dihydroquinazolin-2-yl)phenoxy)acetamide]
- CL ([6]; iv 1 mg/kg): 57.4 ± 1.3 (mL/min)/kg
- time at which the highest concentration was observed ([6]; po 10 mg/kg): 5.14 ± 0.71 h
- autophagy induction (MDA-MB-231 cells [7]): significantly induced autophagy
- thermal stability of CK2α (CETSA) (CK2α): improved the thermal stability
- autophagy induction (MDA-MB-468 cells [8]): significantly induced autophagy
- colony formation (MDA-MB-231 cells [9]): dose-dependently suppressed growth and reduced the number of colonies
- tumor growth inhibition (in words) (MDA-MB-468 xenograft; [16]): dose-dependent tumor growth inhibition
- HE staining of heart, liver, spleen, lung, and kidney tissues (MDA-MB-468 xenograft; after 19 days of treatment): No significant morphologic or structural changes
- mouse body weight and death (MDA-MB-468 xenograft; [17]): No significant changes in mouse body weight and death
- toxicity to the normal breast cell line MCF-10A (MCF-10A cells): did not have obvious toxicity
- thermal stability of BRD4 (CETSA) (BRD4 [10]): improved the thermal stability
- colony formation (MDA-MB-468 cells [11]): dose-dependently suppressed growth and reduced the number of colonies
- anticancer activity against compound 1-resistant cells (MDA-MB-231R cells): able to alleviate drug resistance of 1
- apoptosis (Annexin-V/PI) (MDA-MB-231 cells [12]): dose-dependently induced apoptosis
- level of p-BRD4^S492 (p-BRD4^S492 [13]): dose-dependently downregulated
- level of p-BRD4^S492 (p-BRD4^S492 [14]): dose-dependently downregulated
- apoptosis (Annexin-V/PI) (MDA-MB-468 cells [15]): dose-dependently induced apoptosis
- IC50 (CK1): > 10 µM
- tumor growth inhibition (in words) (MDA-MB-231 xenograft; [16]): dose-dependent tumor growth inhibition
- Ki-67 immunohistochemical staining in tumor tissue (MDA-MB-231 xenograft; 25 or 50 mg/kg): significantly inhibit the proliferation
- expression of c-Myc and p-AKT^S129 in xenograft tumor tissues (IHC) (MDA-MB-231 xenograft; 25 or 50 mg/kg, compared with control group): significantly reduced
- HE staining of heart, liver, spleen, lung, and kidney tissues (MDA-MB-231 xenograft; after 19 days of treatment): No significant morphologic or structural changes
- mouse body weight and death (MDA-MB-231 xenograft; [17]): No significant changes in mouse body weight and death

Compound: N-(3-Chloro-4-(4-methylpiperazin-1-yl)phenyl)-2-(4-(6-chloro-4-oxo-1,4-dihydroquinazolin-2-yl)phenoxy)acetamide [Compound 44l]
- IC50 (MDA-MB-231 cells [1]): 14.4 ± 0.58 µM
- IC50 (MDA-MB-468 cells [2]): 15.3 ± 0.72 µM

Compound: N-(3-Chloro-4-(4-methylpiperazin-1-yl)phenyl)-2-(4-(6-fluoro-4-oxo-1,4-dihydroquinazolin-2-yl)phenoxy)acetamide [Compound 44j]
- IC50 (MDA-MB-231 cells [1]): 6.94 ± 0.68 µM
- IC50 (MDA-MB-468 cells [2]): 7.51 ± 1.13 µM

Compound: N-(3-Chloro-4-(4-methylpiperazin-1-yl)phenyl)-2-(4-(6-methoxy-4-oxo-1,4-dihydroquinazolin-2-yl)phenoxy)acetamide [Compound 44k]
- IC50 (MDA-MB-231 cells [1]): 14.6 ± 0.77 µM
- IC50 (MDA-MB-468 cells [2]): 16.4 ± 0.85 µM

Compound: N-(3-Chloro-4-(4-methylpiperazin-1-yl)phenyl)-2-(4-(7-chloro-4-oxo-1,4-dihydroquinazolin-2-yl)phenoxy)acetamide [Compound 44m]
- IC50 (MDA-MB-231 cells [1]): 5.21 ± 0.82 µM
- IC50 (MDA-MB-468 cells [2]): 6.23 ± 0.55 µM

Compound: N-(3-Chloro-4-(4-methylpiperazin-1-yl)phenyl)-2-(4-(7-methyl-4-oxo-1,4-dihydroquinazolin-2-yl)phenoxy)acetamide [Compound 44n]
- IC50 (MDA-MB-231 cells [1]): 17.4 ± 0.56 µM
- IC50 (MDA-MB-468 cells [2]): 16.2 ± 1.83 µM
